In patent US20210300900A1, “OGA INHIBITOR COMPOUNDS” (Janssen Pharmaceutica NV, priority 2018, published 2021):
Where a name gives a salt, the structure may show the parent alone.

Assays:
[1] = target: T1, recombinant human Meningioma Expressed Antigen 5 (MGEA5), also referred to as O-GcNAcase (OGA) (Homo sapiens, UniProt O60502); assay: OGA biochemical assay (inhibition of FM-GlcNAc hydrolysis, fluorescence); conditions: FM-GlcNAc substrate; for Emax: read-out: Enzymatic Emax (%); for IC50: read-out: Enzymatic hOGA, pIC50 (converted)
T1 construct: Full length OGA enzyme was purchased at OnGene (cat #TP322411); purchased OnGene (so in the source)
T1 sequence (O60502 1-916): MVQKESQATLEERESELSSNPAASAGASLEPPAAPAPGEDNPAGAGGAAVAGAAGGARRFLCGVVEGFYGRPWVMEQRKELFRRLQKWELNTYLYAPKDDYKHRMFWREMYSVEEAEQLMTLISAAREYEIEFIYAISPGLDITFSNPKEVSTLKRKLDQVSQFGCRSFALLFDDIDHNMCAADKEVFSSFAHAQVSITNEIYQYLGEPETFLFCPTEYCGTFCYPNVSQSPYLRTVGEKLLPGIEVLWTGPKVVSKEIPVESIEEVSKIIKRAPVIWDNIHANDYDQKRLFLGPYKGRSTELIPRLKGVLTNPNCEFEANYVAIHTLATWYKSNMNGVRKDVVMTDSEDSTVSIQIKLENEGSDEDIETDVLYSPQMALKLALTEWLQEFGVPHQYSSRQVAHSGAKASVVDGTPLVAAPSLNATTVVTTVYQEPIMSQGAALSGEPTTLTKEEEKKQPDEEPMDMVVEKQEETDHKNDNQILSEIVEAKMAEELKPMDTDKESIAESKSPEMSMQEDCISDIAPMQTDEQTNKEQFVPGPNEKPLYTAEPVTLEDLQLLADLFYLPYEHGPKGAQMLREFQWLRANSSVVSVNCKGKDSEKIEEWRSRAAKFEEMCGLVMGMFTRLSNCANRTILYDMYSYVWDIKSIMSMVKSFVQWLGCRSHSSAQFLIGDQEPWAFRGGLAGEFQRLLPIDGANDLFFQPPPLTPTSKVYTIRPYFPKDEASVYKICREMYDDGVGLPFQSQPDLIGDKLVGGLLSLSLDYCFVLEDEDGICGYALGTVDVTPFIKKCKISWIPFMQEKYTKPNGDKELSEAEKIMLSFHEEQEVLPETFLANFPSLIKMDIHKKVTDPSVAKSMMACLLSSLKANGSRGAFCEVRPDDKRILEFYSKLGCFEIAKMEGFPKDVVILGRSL
Procedure, shortened: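 Full-length recombinant human OGA (2 nM) pre-incubated 60 min with compound, then FM-GlcNAc (100 uM final) added in 200 mM citrate/phosphate pH 7.2 with 0.005% Tween-20; 6 h at room temperature, stopped with pH 11.0 carbonate. Fluorescein read at ex 485/em 538 nm; IC50 and Hill coefficient from curve fit against no-inhibitor and saturating-standard controls.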

OGA = target: T2, OGA (Homo sapiens, UniProt O60502); assay: OGA cellular assay (ICC detection of O-GlcNAcylated proteins in HEK293 cells inducible for P301L mutant human Tau); assay type: cell-based; conditions: 6 hours incubation; for Emax: HEK293, HEK293 cells inducible for P301L mutant human Tau; for Emax / Cellular Emax (%): maximum = Thiamet G 200 uM; for EC50 / Cellular hOGA; pEC50 / Cellular Emax (%): HEK293 cells inducible for P301L mutant human Tau; for EC50: read-out: Cellular hOGA, pEC50 (converted)
T2 construct: endogenous in cells; host or cells: HEK293 cells inducible for P301L mutant human Tau (isoform 2N4R)
T2 sequence (O60502 1-916): T1 sequence (O60502 1-916)
Procedure: HEK293 cells inducible for P301L mutant human Tau (isoform 2N4R) were established at Janssen. Thiamet-G was used for both plate validation (high control) and as reference compound (reference EC50 assay validation). OGA inhibition is evaluated through the immunocytochemical (ICC) detection of O-GlcNAcylated proteins by the use of a monoclonal antibody (CTD110.6; Cell Signaling, #9875) detecting O-GlcNAcylated residues as previously described (Dorfmueller et al. 2010 Chemistry & biology, 17:1250). Inhibition of OGA will result in an increase of O-GlcNAcylated protein levels resulting in an increased signal in the experiment. Cell nuclei are stained with Hoechst to give a cell culture quality control and a rough estimate of immediate compounds toxicity, if any. ICC pictures are imaged with a Perkin Elmer Opera Phenix plate microscope and quantified with the provided software Perkin Elmer Harmony 4.1.
Cells were propagated in DMEM high Glucose (Sigma, #D5796) following standard procedures. 2 days before the cell assay cells are split, counted and seeded in Poly-D-Lysine (PDL) coated 96-wells (Greiner, #655946) plate at a cell density of 12,000 cells per cm^2 (4,000 cells per well) in 100 μl of Assay Medium (Low Glucose medium is used to reduce basal levels of GlcNAcylation) (Park et al. 2014 The Journal of biological chemistry 289:13519). At the day of compound test medium from assay plates was removed and replenished with 90 μl of fresh Assay Medium. 10 μl of compounds at a 10 fold final concentration were added to the wells. Plates were centrifuged shortly before incubation in the cell incubator for 6 hours. DMSO concentration was set to 0.2%. Medium is discarded by applying vacuum. For staining of cells medium was removed and cells washed once with 100 μl D-PBS (Sigma, #D8537). From next step onwards unless other stated assay volume was always 50 μl and incubation was performed without agitation and at room temperature. Cells were fixed in 50 μl of a 4% paraformaldehyde (PFA, Alpha aesar, #043368) PBS solution for 15 minutes at room temperature. […] Before analysis samples were washed 2 times manually for 5 minutes in ICC base buffer.
Imaging is performed using Perkin Elmer Phenix Opera using a water 20×objective and recording 9 fields per well. Intensity readout at 488 nm is used as a measure of O-GlcNAcylation level of total proteins in wells. To assess potential toxicity of compounds nuclei were counted using the Hoechst staining. IC50-values are calculated using parametric non-linear regression model fitting. As a maximum inhibition Thiamet G at a 200 uM concentration is present on each plate. In addition, a concentration response of Thiamet G is calculated on each plate.

Structure (SMILES)	melting point [°C]	Emax [1] [%]	IC50 [1] [nM]	Emax (OGA) [%]	EC50 (OGA) [nM]	other results
CC(=O)Nc1ccnc(CN2CCC[C@H](Cc3cc(C)nc(C)c3)C2)c1 (as salt: HCl) [Product 31]	133					
CC(=O)Nc1ccnc(C(C)N2CCC[C@H](Cc3cc(C)nc(C)c3)C2)c1 (stereo partly drawn) (as salt: HCl) [Product 32]	138					
CC(=O)Nc1cncc(CN2CCC[C@H](Cc3cc(C)nc(C)c3)C2)c1 (as salt: HCl) [Product 34]	186.5					
CC(=O)Nc1cc(CN2CCC[C@H](Cc3cc(C)nc(C)c3)C2)cnn1 (as salt: HCl) [Product 62]	206.5					
CC(=O)Nc1cc(C(C)N2CCCC(CNc3cc(C)nc(C)c3)C2)[nH]n1 (stereo not drawn) (as salt: HCl) [Product 83]	245					
COc1ccc(F)c(C(C)N2CCCC(CNc3cc(C)nc(C)c3)C2)n1 (stereo not drawn) (as salt: HCl) [Product 86]	206.8					
COc1ccc(F)c(C(C)N2CCCC(CNc3cc(C)nc(C(F)(F)F)c3)C2)n1 (stereo not drawn) (as salt: HCl) [Product 96]	211.6					
CC(=O)Nc1cc(CN2CCCC(COc3cc(C)nc(C)c3)C2)n[nH]1 (stereo not drawn) (as salt: hydrochloric acid salt) [Product 119]	192.2					
CC(=O)Nc1cc(C(C)N2CCC[C@H](Cc3cc(C)nc(C)c3)C2)cnc1C (mixture of isomers) (as salt: HCl) [Product 33]	147.5					
CCC(=O)Nc1cncc(C(C)N2CCC[C@H](Cc3cc(C)nc(C)c3)C2)c1 (mixture of isomers) (as salt: HCl) [Product 38]	188.1					
CNC(=O)c1cncc(C(C)N2CCC[C@H](Cc3cc(C)nc(C)c3)C2)c1 (mixture of isomers) (as salt: HCl) [Product 40]	251.2					
COc1cncc(C(C)N2CCC[C@H](Cc3cc(C)nc(C)c3)C2)c1 (mixture of isomers) (as salt: HCl) [Product 43]	161.4					
CCOc1cncc(C(C)N2CCC[C@H](Cc3cc(C)nc(C)c3)C2)c1 (mixture of isomers) (as salt: HCl) [Product 44]	138					
COc1cc(NC[C@H]2CCCN(C(C)c3nc(OC)ccc3F)C2)cc(C)n1 (mixture of isomers) (as salt: HCl) [Product 90]	151.3					
CCOc1cc(CN2CCC[C@H](Cc3cc(C)nc(C)c3)C2)n[nH]1 [Product 14]	112.89	81	2750			
CC(=O)Nc1cncc(CN2CCC[C@H](Cc3cc(C)nc(C)c3)C2)c1 [Product 34]		91	490	4	> 1000	

Structure (SMILES)	melting point [°C]	Emax [1] [%]	IC50 [1] [nM]	Emax (OGA) [%]	EC50 (OGA) [nM]	other results
COc1ccc(F)c([C@H](C)N2CCC[C@H](Cc3cc(C)nc(C)c3)C2)n1 [Product 42]						Enzymatic Emax (%) [1]: 103%; Enzymatic hOGA; pIC50 [1]: 7.88; Cellular hOGA; pEC50 (OGA): 7.03; Cellular Emax (%) (OGA): 100%
COc1cccc([C@H](C)N2CCC[C@H](Cc3cc(C)nc(C)c3)C2)n1 [Product 47]						Enzymatic Emax (%) [1]: 102%; Enzymatic hOGA; pIC50 [1]: 7.28; Cellular hOGA; pEC50 (OGA): 6.29; Cellular Emax (%) (OGA): 67%
CC(=O)Nc1cnc(CN2CCC[C@H](Cc3cc(C)nc(C)c3)C2)cn1 [Product 63]		93	1200	25	> 1000	
COc1cc(C[C@H]2CCCN(C(C)c3cc(NC(C)=O)[nH]n3)C2)cc(C)n1 (stereo partly drawn) [Product 66]		102	18.6	83	200	
COc1ccc(F)c(C(C)N2CCCC(c3cc(C)nc(C)c3)C2)n1 (stereo not drawn) [Product 74]		102	35.5	48	676	
COc1cc(C[C@H]2CCCN(C(C)c3nc(OC)ccc3F)C2)cc(C)n1 (stereo partly drawn) [Product 76]			52.5		> 1000	Enzymatic Emax (%) ([1]; listed as 76): 101%; Cellular Emax (%) (OGA; listed as 76): 30%
COc1ccc(F)c(C(C)N2CCC[C@H](Cc3cc(C)nc(C(F)(F)F)c3)C2)n1 (stereo partly drawn) [Product 77]			14.8	49	955	Enzymatic Emax (%) [1]: 101%
CC(=O)Nc1cc(C(C)N2CCCC(Oc3cc(C)nc(C)c3)C2)n[nH]1 (stereo not drawn) [Product 80]		102	102	7	> 1000	
COc1ccc(F)c(C(C)N2CCCC(Oc3cc(C)nc(C(F)(F)F)c3)C2)n1 (stereo not drawn) [Product 82]		97	891	6	> 1000	
COc1ccc(F)c(C(C)N2CCCC(CNc3cc(C)nc(C)c3)C2)n1 (stereo not drawn) [Product 86]		102	17	94	56.2	
COc1cccc([C@H](C)N2CCC[C@@H](CNc3cc(C)nc(C(F)(F)F)c3)C2)n1 [Product 95]						Enzymatic Emax (%) [1]: 103%; Enzymatic hOGA; pIC50 [1]: 7.8; Cellular hOGA; pEC50 (OGA): <6; Cellular Emax (%) (OGA): 44%
COc1ccc(F)c(C(C)N2CCCC(CNc3cc(C)nc(C(F)(F)F)c3)C2)n1 (stereo not drawn) [Product 96]		104	13.5	23	> 1000	
CC(=O)Nc1cc(C(C)N2CCCC(Oc3ncc(C)nc3C)C2)n[nH]1 (stereo not drawn) [Product 117]		102	64.6	30	> 1000	
COc1cc(C[C@H]2CCCN(C(C)c3nc(OC)ccc3F)C2)cc(C)n1 (stereo partly drawn) [Product 118]		99	87.1		219	Cellular Emax (%) (OGA; listed as 118): 82%
COc1ccc(F)c(C(C)N2CCCC(Oc3cc(C)nc(C)c3)C2)n1 (stereo not drawn) [Product 137]		102	107	4	> 1000	
CCOc1cc(CN2CCC[C@H](Cc3cc(C)nc(C)c3)C2)n(C)n1 [Product 162]				-6	> 1000	Enzymatic Emax (%) [1]: 36%
